Assay results: patent US11001560B2, “Compound for blocking absorption of heavy metals by plants and a composition containing the same” (SICHUAN HUI TAI AGRICULTURAL TECHNOLOGY CO. LTD., priority 2018, dated 2021)

Tests used:
pepper = experiment: Potted experiment: effect of compound of formula I on reducing heavy metal (Cd, Pb) content in vegetables; assay type: in vivo
Method: (§1) Potted experiments were carried out. The test soil was collected from the topsoil (0-20 cm) of farmland in the outskirts of Chengdu, Sichuan Province. The soil type was purple soil, with a total lead content of 1209.21 mg kg^−1 and a total cadmium content of 8.06 mg kg^−1. After the soil samples were collected, the plant residues were removed, air-dried, and passed through a 5 mm siever for later use. Test plants were bok choy and pepper. The sieved soil was filled into a tray, and 80 g of soil was filled in each tray. Before the planting, watering was carried out for 3 days to maintain the field water holding capacity of about 60%. Seeds of uniform size were selected. The surface of the seed was sterilized with ethanol: 30% H2O2 (V:V=1:1) for 3 minutes, and rinsed with sterile deionized water. The sterilized plant seeds were divided into two groups. One group was soaked in a deionized aqueous solution (5 g/L) of the compound of formula I for 4 hours, and was set as the experimental group. The other group was soaked in deionized water for the same time as the control group. The process was repeated 4 times. The seeds after soaking were sowed in a pot. After 1 week after emergence, 3 plants were left in each pot. The above soaking treatment was performed again, and the roots of the experimental group and the control group were soaked with 5 mL of an aqueous solution containing a compound of formula I and deionized water per pot, respectively. Watering the plant daily was necessary to ensure the necessary water for plant growth. Plants were harvested after 40 days of growth. The plants were removed from the pot and washed with deionized water. After harvesting, the plants were cut into roots and above ground parts along the junction of the rhizomes. The plants were put in an oven at 105° C. for 15 minutes, dried at 70° C., and weighed the dry weight of roots and above ground parts. The plant samples were grounded and digested by the nitric acid-perchloric acid method. The contents of heavy metals Pb and Cd in the plants were determined by atomic absorption spectrophotometer.

bok choy = experiment: as above; assay type: in vivo
Method: as §1

[1] = experimental group (5 g/L compound of formula I) vs deionized water control
[2] = seeds soaked 4 hours in 5 g/L aqueous solution, roots soaked again with 5 mL per pot, Pb/Cd-contaminated soil, harvested after 40 days, atomic absorption

## C/C=C/C(C[C@]1(O)CCNC[C@H](O)CCC2C=CCC(=O)C2C(=O)C/C=C/C=C/C[C@@H](O)C1)OC (stereo partly shown) [compound of formula I]
pepper; [1]
  Cd and Pb concentrations in the above ground parts and below ground parts of peppers, compared with the control group: significantly reduce
pepper; [2]
  Cd Concentration in Vegetables, Above Ground Parts, Pepper: 2.89 ± 0.39 mg/L
  Cd Concentration in Vegetables, Below Ground Parts, Pepper: 4.58 ± 0.11 mg/L
  Pb Concentration in Vegetables, Above Ground Parts, Pepper: 1.32 ± 0.08 mg/L
  Pb Concentration in Vegetables, Below Ground Parts, Pepper: 5.11 ± 0.63 mg/L
Bok choy; [1]
  Cd and Pb concentrations in the above ground parts and below ground parts of bok choy, compared with the control group: significantly reduce
Bok choy; [2]
  Cd Concentration in Vegetables, Above Ground Parts, Bok Choy: 2.08 ± 0.19 mg/L
  Cd Concentration in Vegetables, Below Ground Parts, Bok Choy: 2.01 ± 0.33 mg/L
  Pb Concentration in Vegetables, Above Ground Parts, Bok Choy: 1.51 ± 0.06 mg/L
  Pb Concentration in Vegetables, Below Ground Parts, Bok Choy: 6.71 ± 1.08 mg/L
